Experimental data from patent publication US9079852B2, “NMDA receptor antagonists for neuroprotection” (Emory University, priority 2007, dated 2015).

Tests used:
[1] = target: rat alpha-1 adrenergic receptor; assay: alpha-1 adrenergic receptor binding by displacement of 3[H]-prazosin in rat brain membranes; details: 3[H]-prazosin displacement, read-out: α1 IC50
Protocol: Binding to the rat alpha-1 adrenergic receptor in rat brain membranes was determined by displacement of ^3[H]-prazosin (P. Greengrass and R. Bremner; Binding characteristics of 3H-prazosin to rat brain a-adrenergic receptors. Eur. J. Pharmacol. 1979, 55: 323-326). Compounds were incubated at 0.3 or 3 μM final concentration, in duplicate, and the amount of displaced ^3[H]-prazosin determined by liquid scintillation spectroscopy.
Binding IC50 values were determined from displacement curves (four-six concentrations, each concentration in duplicate) fit by a non-linear, least squares, regression analysis using MathIQ (ID Business Solutions Ltd., UK). The binding Ki's were determined from the IC50 according to the method of Cheng and Prusoff (Y. Cheng and W. H. Prusoff; Relationship between the inhibition constant (K1) and the concentration of inhibitor which causes 50 percent inhibition (IC50) of an enzymatic reaction. Biochem. Pharmacol. 1973, 22: 3099-3108).

[2] = Plasma half-life / plasma pharmacokinetics (Table G); format: in vivo; details: rat
Protocol: (§1) Animals were fasted overnight prior to dose administration and food returned to the animals two hours after dosing. Following IV dosing, blood samples (ca 200 μL) were collected into separate tubes containing anticoagulant (K-EDTA) via the orbital plexus at various times post administration. Plasma samples were prepared immediately after collection by centrifugation for ten minutes using a tabletop centrifuge, and stored at −80° C. Brain tissue was weighed, homogenized on ice in 50 mM phosphate buffer (2 ml per brain) and the homogenate stored at −80° C. Plasma and brain homogenate samples were extracted by the addition of 5 volumes of cold acetonitrile, mixed well by vortexing and centrifuged at 4000 rpm for 15 minutes. The supernatant fractions were analyzed by LC-MS/MS operating in multiple reaction monitoring mode (MRM). The amount of parent compound in each sample was calculated by comparing the response of the analyte in the sample to that of a standard curve.

[3] = Brain exposure / brain penetration (Table H); format: in vivo, rat; details: for BBB Pene Classification: classes High/Moderate/Low, key not given
Protocol: as §1, with “Rats (n=3 per dose) were administered compounds at a doses of 1-4 mg/kg in a single bolus i.v. infusion (2 ml/kg body weight) via the tail vein formulated in 2% dimethyl acetamide/98% 2-hydroxy-propyl cyclodextrin (5%). Animals” for “Animals”

[4] = Oral absorption (Table I); format: in vivo; details: rat, plasma, read-out: p.o. t½ hr (converted)
[5] = iv, 3 mg/kg, 3 MPK i.v., read-out: PK-i.v. t½ (converted)
[6] = iv, 1 mg/kg, 1 MPK i.v., read-out: PK-i.v. t½ (converted)

## CS(=O)(=O)Nc1ccc(OC[C@@H](O)CN2CCN(c3ccc(Cl)cc3)CC2)cc1
[1]
  IC50: 350 nM

## O[C@H](COc1ccc2[nH]ncc2c1)CN1CCN(c2ccc(Cl)cc2)CC1
[1]
  IC50: ~300 nM

## O=c1ccc2cc(OC[C@@H](O)CN3CCN(c4ccc(Cl)cc4)CC3)ccc2[nH]1
[1]
  IC50: ~350 nM

## O=c1[nH]c2ccc(OC[C@@H](O)CN3CCN(c4ccc(Cl)cc4)CC3)cc2[nH]1
[1]
  IC50: ~350 nM

## O=C1Cc2cc(OC[C@@H](O)CN3CCN(c4ccc(Cl)cc4)CC3)ccc2N1
[1]
  IC50: ~100 nM

## O[C@H](COc1ccc2[nH]c(=S)[nH]c2c1)CN1CCN(c2ccc(Cl)cc2)CC1
[1]
  IC50: ~150 nM

## O=C1CCc2cc(OC[C@@H](O)CN3CCN(c4ccc(Cl)cc4)CC3)ccc2N1
[1]
  IC50: ~100 nM

## CS(=O)(=O)Nc1ccc(OC[C@@H](O)CN2CCN(c3ccc(Cl)c(Cl)c3)CC2)cc1
[2]; [5]
  half-life: 2.6 h

## O=C(COc1ccc2[nH]c(=O)[nH]c2c1)N1CCN(c2ccc(Cl)c(Cl)c2)CC1
[2]; [6]
  half-life: 1.84 h

## Oc1ccc(OC[C@@H](O)CN2CCN(c3ccc(Cl)cc3)CC2)cc1 [drawing 743]
[1]
  IC50: 720 nM

## O=c1[nH]c2ccc(OC[C@@H](O)CN3CCN(c4ccc(Cl)cc4)CC3)cc2o1 [drawing 744]
[1]
  IC50: 620 nM

## NC(=O)Nc1ccc(OC[C@@H](O)CN2CCN(c3ccc(Cl)cc3)CC2)cc1 [drawing 746]
[1]
  IC50: 340 nM

## NC(=O)Nc1ccc(OC[C@@H](O)CN2CCN(c3ccc(Cl)cc3)CC2)cc1 [drawing 754]
[2]; [6]
  half-life: 2.7 h

## O=c1[nH]c2ccc(OC[C@@H](O)CN3CCN(c4ccc(F)c(F)c4)CC3)cc2[nH]1 [drawing 755]
[2]; [6]
  half-life: 2.4 h

## CS(=O)(=O)Nc1ccc(OC[C@@H](O)CN2CCN(c3ccc(F)c(F)c3)CC2)cc1 [drawing 757]
[2]; ip, 60 mg/kg, 60 MPK i.p., read-out: PK t½ (hr) i.p.
  half-life: > 2 h

## Cc1ccc(N2CCN(C[C@H](O)COc3ccc4c(c3)CCC(=O)N4)CC2)cc1 [drawing 758]
[2]; [6]
  half-life: 0.8 h

## Oc1ccc(OC[C@@H](O)CN2CCN(c3ccc(Cl)cc3)CC2)cc1 [drawing 759]
[2]; [6]
  half-life: 0.6 h

## O=c1[nH]c2ccc(OC[C@@H](O)CN3CCN(c4ccc(Cl)cc4)CC3)cc2o1 [drawing 760]
[2]; [6]
  half-life: 0.6 h

## Cc1ccc(N2CCN(C[C@H](O)COc3ccc4[nH]c(=O)oc4c3)CC2)cc1 [drawing 761]
[2]; [6]
  half-life: 0.6 h

## NC(=O)Nc1ccc(OC[C@@H](O)CN2CCN(c3ccc(Cl)cc3)C2=O)cc1 [drawing 762]
[2]; [6]
  half-life: 1.14 h

## O=C1N(C[C@H](O)COc2ccc(O)cc2)CCN1c1ccc(Cl)cc1 [drawing 763]
[2]; [5]
  half-life: ≤ 0.8 h

## O=C(COc1ccc2[nH]c(=O)oc2c1)N1CCN(c2ccc(Cl)c(Cl)c2)CC1 [drawing 765]
[2]; ip, 10 mg/kg, 10 MPK i.p., read-out: PK t½ (hr) i.p.
  half-life: ~0.83 h

## O=c1[nH]c2ccc(OC[C@@H](O)CSc3nc4cc(Cl)c(Cl)cc4[nH]3)cc2o1 [drawing 766]
[2]; [5]
  half-life: ≤ 0.8 h

## Oc1ccc(OC[C@@H](O)CSc2nc3cc(Cl)c(Cl)cc3[nH]2)cc1 [drawing 767]
[2]; [5]
  half-life: ~0.5 h

## Oc1ccc(OC[C@@H](O)CN2CCN(c3ccc(Cl)cc3)CC2)cc1 [drawing 768]
[3]
  BBB Pene Classification: High

## Cc1ccc(N2CCN(C[C@H](O)COc3ccc4[nH]c(=O)oc4c3)CC2)cc1 [drawing 769]
[3]
  BBB Pene Classification: Moderate

## CS(=O)(=O)Nc1ccc(OC[C@@H](O)CN2CCN(c3ccc(F)c(F)c3)CC2)cc1 [drawing 770]
[3]
  BBB Pene Classification: Moderate

## NC(=O)Nc1ccc(OC[C@@H](O)CN2CCN(c3ccc(Cl)cc3)CC2)cc1 [drawing 771]
[3]
  BBB Pene Classification: Low

## O=C1N(C[C@H](O)COc2ccc(O)cc2)CCN1c1ccc(Cl)cc1 [drawing 772]
[3]
  BBB Pene Classification: High

## NC(=O)Nc1ccc(OC[C@@H](O)CN2CCN(c3ccc(Cl)cc3)C2=O)cc1 [drawing 773]
[3]; 1 MPK i.v., no time point printed
  RATIO: Brain:plasma (Direct): Below Detection limit (~0)
[3]
  BBB Pene Classification: Low

## O=C(COc1ccc2[nH]c(=O)oc2c1)N1CCN(c2ccc(Cl)c(Cl)c2)CC1 [drawing 774]
[3]
  BBB Pene Classification: Moderate

## O=C(COc1ccc2[nH]c(=O)oc2c1)N1CCN(c2ccc(Cl)c(Cl)c2)CC1 [drawing 775]
[3]; rat, brain/plasma, iv, 1 mg/kg, 1 MPK i.v., 15 m, read-out: RATIO: Brain:plasma (Direct), 15 m
  Kp at 15 min: 0.04
[3]; rat, brain/plasma, iv, 1 mg/kg, 1 MPK i.v., 30 m, read-out: RATIO: Brain:plasma (Direct), 30 m
  Kp at 30 min: 0.06
[3]; rat, brain/plasma, iv, 1 mg/kg, 1 MPK i.v., 1 hr, read-out: RATIO: Brain:plasma (Direct), 1 hr
  Kp at 1 h: 0.07
[3]; rat, brain/plasma, iv, 1 mg/kg, 1 MPK i.v., 3 hr, read-out: RATIO: Brain:plasma (Direct), 3 hr
  Kp at 3 h: 0.1
[3]; rat, brain/plasma, iv, 1 mg/kg, 1 MPK i.v., avg, read-out: RATIO: Brain:plasma (Direct), avg
  Kp: 0.07

## Oc1ccc(OC[C@@H](O)CSc2nc3cc(Cl)c(Cl)cc3[nH]2)cc1 [drawing 776]
[3]; 3 MPK i.v., 2 hr
  RATIO: Brain:plasma (Direct), 2 hr: BLQ
[3]
  BBB Pene Classification: High

## O=c1[nH]c2ccc(OC[C@@H](O)CSc3nc4cc(Cl)c(Cl)cc4[nH]3)cc2o1 [drawing 777]
[3]; 3 MPK i.v., 30 m
  RATIO: Brain:plasma (Direct), 30 m: BLQ (avg); BLQ (30 m), BLQ (1 hr),
[3]; 3 MPK i.v., 1 hr
  RATIO: Brain:plasma (Direct), 1 hr: BLQ (avg); BLQ (30 m), BLQ (1 hr),
[3]; 3 MPK i.v., avg
  RATIO: Brain:plasma (Direct), avg: BLQ (avg); BLQ (30 m), BLQ (1 hr),
[3]
  BBB Pene Classification: Moderate

## NC(=O)Nc1ccc(OC[C@@H](O)CN2CCN(c3ccc(Cl)cc3)CC2)cc1 [drawing 778]
[4]; 10 mg/kg, 10 MPK, 0-8 hr p.o.
  half-life: 388 min

## O=c1[nH]c2ccc(OC[C@@H](O)CN3CCN(c4ccc(F)c(F)c4)CC3)cc2[nH]1 [drawing 779]
[4]; 5 mg/kg, 5 MPK, 0-6 hr p.o.
  half-life: 182 min

## Cc1ccc(N2CCN(C[C@H](O)COc3ccc4c(c3)CCC(=O)N4)CC2)cc1 [drawing 780]
[4]; 5 mg/kg, 5 MPK, 0-6 hr p.o.
  half-life: 51 min
